Data on 41 compounds can be found in US20240299385A1 (ReWind Therapeutics NV, priority 2021, published 2024).

This test concerns the target T1, human GPR17 receptor (Homo sapiens, UniProt Q13304).
T1 construct: host or cells: HEK-293
In words: Calcium mobilization functional assay (Fluo-8, FLIPR TETRA) in HEK-293 hGPR17 (Gα-q assay). The test is classed as cell-based. Conditions: antagonism of MDL29,951 (~EC80) induced Ca2+ signal; cell line (HEK-293 hGPR17 or HEK-293 Suchi5 hGPR17) not given. The procedure, abridged: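 Fluo-8-loaded HEK-293 hGPR17 cells (60 min dye loading, room temperature) were preincubated with compound for twenty minutes, then challenged with agonist MDL29,951 at ~EC80, 500 nM. Intracellular calcium release via Gα-q was recorded as FLIPR fluorescence for a further 2 minutes; compounds tested in duplicate.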

T1 sequence (Q13304 whole entry): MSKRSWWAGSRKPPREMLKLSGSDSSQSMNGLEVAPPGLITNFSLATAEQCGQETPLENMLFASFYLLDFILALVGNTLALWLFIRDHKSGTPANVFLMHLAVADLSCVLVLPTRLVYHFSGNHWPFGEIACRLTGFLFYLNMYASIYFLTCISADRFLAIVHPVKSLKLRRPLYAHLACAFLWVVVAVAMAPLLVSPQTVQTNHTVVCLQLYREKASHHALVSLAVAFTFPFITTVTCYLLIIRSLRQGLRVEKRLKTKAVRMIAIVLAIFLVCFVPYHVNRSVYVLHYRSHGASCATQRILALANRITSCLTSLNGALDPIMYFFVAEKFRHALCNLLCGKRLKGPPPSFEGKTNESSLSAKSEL

Turning to `N#Cc1ccc(NS(=O)(=O)c2c[nH]c(-c3ccsc3)c2)c(F)c1` [Cpd 103, N-(4-cyano-2-fluoro-phenyl)-5-(3-thienyl)-1H-pyrrole-3-sulfonamide], the IC50 is under 0.5 µM. The figure for `N#Cc1ccc(NS(=O)(=O)c2c[nH]c(-c3cc(F)cc(F)c3)c2)c(F)c1` [Cpd 104, N-(4-cyano-2-fluoro-phenyl)-5-(3,5-difluorophenyl)-1H-pyrrole-3-sulfonamide] is 0.5 to 5 µM; for `N#Cc1ccc(NS(=O)(=O)c2c[nH]c(-c3cccnc3F)c2)c(F)c1` [Cpd 105, N-(4-cyano-2-fluoro-phenyl)-5-(2-fluoro-3-pyridyl)-1H-pyrrole-3-sulfonamide] it is 0.5 to 5 µM; for `N#Cc1ccc(NS(=O)(=O)c2c[nH]c(-c3ccccc3C#N)c2)c(F)c1` [Cpd 106, N-(4-cyano-2-fluoro-phenyl)-5-(2-cyanophenyl)-1H-pyrrole-3-sulfonamide] it is 0.5 to 5 µM.

`N#Cc1ccc(NS(=O)(=O)c2c[nH]c(-c3cccc(CO)c3F)c2)c(F)c1` [Cpd 107, N-(4-cyano-2-fluoro-phenyl)-5-[2-fluoro-3-(hydroxymethyl)phenyl]-1H-pyrrole-3-sulfonamide]: the IC50 was 0.5 to 5 µM. The value for `N#Cc1ccc(NS(=O)(=O)c2c[nH]c(-c3cc(CO)ccc3F)c2)c(F)c1` [Cpd 108, N-(4-cyano-2-fluoro-phenyl)-5-[2-fluoro-5-(hydroxymethyl)phenyl]-1H-pyrrole-3-sulfonamide] was 0.5 to 5 µM. The figure for `O=S(=O)(Nc1cc(F)c(F)cc1F)c1c[nH]c(-c2ccc(F)cc2)c1` [Cpd 109, 5-(4-fluorophenyl)-N-(2,4,5-trifluorophenyl)-1H-pyrrole-3-sulfonamide] is 5 to 50 µM; for `O=S(=O)(Nc1cc(F)c(F)cc1F)c1c[nH]c(-c2cccc(F)c2)c1` [Cpd 110, 5-(3-fluorophenyl)-N-(2,4,5-trifluorophenyl)-1H-pyrrole-3-sulfonamide] it is 0.5 to 5 µM; for `Cc1ccccc1-c1cc(S(=O)(=O)Nc2cc(F)c(F)cc2F)c[nH]1` [Cpd 111, 5-(o-tolyl)-N-(2,4,5-trifluorophenyl)-1H-pyrrole-3-sulfonamide] it is 0.5 to 5 µM. The figure for `O=S(=O)(Nc1ccc2ncccc2c1)c1c[nH]c(-c2ccccc2)c1` [Cpd 112, 5-phenyl-N-(6-quinolyl)-1H-pyrrole-3-sulfonamide] is 0.5 to 5 µM; for `O=S(=O)(Nc1cc(F)c(C(F)(F)F)cc1F)c1c[nH]c(-c2ccc(F)cc2)c1` [Cpd 113, N-[2,5-difluoro-4-(trifluoromethyl)phenyl]-5-(4-fluorophenyl)-1H-pyrrole-3-sulfonamide] it is 0.5 to 5 µM; for `O=S(=O)(Nc1cc(F)c(C(F)(F)F)cc1F)c1c[nH]c(-c2cccc(F)c2)c1` [Cpd 114, N-[2,5-difluoro-4-(trifluoromethyl)phenyl]-5-(3-fluorophenyl)-1H-pyrrole-3-sulfonamide] it is 0.5 to 5 µM. With `O=S(=O)(Nc1ccc(OCCF)cc1F)c1c[nH]c(-c2ccccc2F)c1` [Cpd 115, N-[2-fluoro-4-(2-fluoroethoxy)phenyl]-5-(2-fluorophenyl)-1H-pyrrole-3-sulfonamide], the IC50 fell in the range of 5 to 50 µM.

As to `COc1nc(OC(F)F)c(F)cc1NS(=O)(=O)c1c[nH]c(-c2ccccc2F)c1` [Cpd 116, N-[6-(difluoromethoxy)-5-fluoro-2-methoxy-3-pyridyl]-5-(2-fluorophenyl)-1H-pyrrole-3-sulfonamide], the IC50 is under 0.5 µM. Regarding `COc1ccc(F)c(-c2cc(S(=O)(=O)Nc3cc(F)c(C(F)(F)F)cc3F)c[nH]2)c1` [Cpd 117, N-[2,5-difluoro-4-(trifluoromethyl)phenyl]-5-(2-fluoro-5-methoxy-phenyl)-1H-pyrrole-3-sulfonamide], the IC50 is 0.5 to 5 µM. The value for `Cc1ccccc1-c1cc(S(=O)(=O)Nc2cc(F)c(C(F)(F)F)cc2F)c[nH]1` [Cpd 118, N-[2,5-difluoro-4-(trifluoromethyl)phenyl]-5-(o-tolyl)-1H-pyrrole-3-sulfonamide] was 0.5 to 5 µM.

As for `O=S(=O)(Nc1cc(F)c(C(F)(F)F)cc1F)c1c[nH]c(-c2c(F)cccc2F)c1` [Cpd 119, 5-(2,6-difluorophenyl)-N-[2,5-difluoro-4-(trifluoromethyl)phenyl]-1H-pyrrole-3-sulfonamide], the IC50 is under 0.5 µM. Take `O=S(=O)(Nc1ccc(F)cc1F)c1c[nH]c(-c2cccc(F)c2)c1` [Cpd 120, N-(2,4-difluorophenyl)-5-(3-fluorophenyl)-1H-pyrrole-3-sulfonamide]: the IC50 lay within 5 to 50 µM.

With `O=S(=O)(Nc1ccc(F)cc1F)c1c[nH]c(-c2ccccn2)c1` [Cpd 122, N-(2,4-difluorophenyl)-5-(2-pyridyl)-1H-pyrrole-3-sulfonamide], the IC50 fell in the range of 5 to 50 µM. The figure for `O=S(=O)(Nc1ccc(C(F)(F)F)cc1F)c1c[nH]c(-c2ccccn2)c1` [Cpd 123, N-[2-fluoro-4-(trifluoromethyl)phenyl]-5-(2-pyridyl)-1H-pyrrole-3-sulfonamide] is 0.5 to 5 µM. The figure for `O=S(=O)(Nc1cc(F)c(C(F)(F)F)cc1F)c1c[nH]c(-c2ccccn2)c1` [Cpd 124, N-[2,5-difluoro-4-(trifluoromethyl)phenyl]-5-(2-pyridyl)-1H-pyrrole-3-sulfonamide] is under 0.5 µM. The figure for `O=S(=O)(Nc1cccc(F)c1)c1c[nH]c(-c2ccccn2)c1` [Cpd 125, N-(3-fluorophenyl)-5-(2-pyridyl)-1H-pyrrole-3-sulfonamide] is 5 to 50 µM. As for `Cc1nc(Cl)ccc1NS(=O)(=O)c1c[nH]c(-c2ccccc2)c1` [Cpd 126, N-(6-chloro-2-methyl-3-pyridyl)-5-phenyl-1H-pyrrole-3-sulfonamide], the IC50 is 0.5 to 5 µM. The figure for `Cc1ccc(NS(=O)(=O)c2c[nH]c(-c3ccccc3)c2)c(Cl)n1` [Cpd 127, N-(2-chloro-6-methyl-3-pyridyl)-5-phenyl-1H-pyrrole-3-sulfonamide] is 5 to 50 µM; for `COc1nc(C)ccc1NS(=O)(=O)c1c[nH]c(-c2ccccc2)c1` [Cpd 128, N-(2-methoxy-6-methyl-3-pyridyl)-5-phenyl-1H-pyrrole-3-sulfonamide] it is 5 to 50 µM.

For `Cc1ccnc(C)c1NS(=O)(=O)c1c[nH]c(-c2ccccc2)c1` [Cpd 129, N-(2,4-dimethyl-3-pyridyl)-5-phenyl-1H-pyrrole-3-sulfonamide], the IC50 is 0.5 to 5 µM. The figure for `COCCOc1ccc(NS(=O)(=O)c2c[nH]c(-c3ccccc3F)c2)c(F)c1` [Cpd 130, N-[2-fluoro-4-(2-methoxyethoxy)phenyl]-5-(2-fluorophenyl)-1H-pyrrole-3-sulfonamide] is 5 to 50 µM. The figure for `O=S(=O)(Nc1cc(F)c(F)cc1F)c1c[nH]c(-c2c(F)cccc2F)c1` [Cpd 131, 5-(2,6-difluorophenyl)-N-(2,4,5-trifluorophenyl)-1H-pyrrole-3-sulfonamide] is 0.5 to 5 µM. The value for `O=S(=O)(Nc1cc(F)c(C(F)(F)F)cc1F)c1c[nH]c(C2CCCC2)c1` [Cpd 132, 5-cyclopentyl-N-[2,5-difluoro-4-(trifluoromethyl)phenyl]-1H-pyrrole-3-sulfonamide] was 0.5 to 5 µM.

Regarding `O=S(=O)(Nc1ncc(F)cc1F)c1c[nH]c(-c2ccccc2F)c1` [Cpd 133, N-(3,5-difluoro-2-pyridyl)-5-(2-fluorophenyl)-1H-pyrrole-3-sulfonamide], the IC50 is 5 to 50 µM.

As to `COc1cc(Cl)cnc1NS(=O)(=O)c1c[nH]c(-c2ccccc2)c1` [Cpd 134, N-(5-chloro-3-methoxy-2-pyridyl)-5-phenyl-1H-pyrrole-3-sulfonamide], the IC50 is 0.5 to 5 µM. The figure for `Cc1nc(C(F)(F)F)ccc1NS(=O)(=O)c1c[nH]c(-c2ccccc2)c1` [Cpd 135, N-[2-methyl-6-(trifluoromethyl)-3-pyridyl]-5-phenyl-1H-pyrrole-3-sulfonamide] is 0.5 to 5 µM; for `Cc1cnc(NS(=O)(=O)c2c[nH]c(-c3ccccc3)c2)c(F)c1` [Cpd 136, N-(3-fluoro-5-methyl-2-pyridyl)-5-phenyl-1H-pyrrole-3-sulfonamide] it is 0.5 to 5 µM.

As to `O=S(=O)(Nc1cc(F)c(F)cc1F)c1c[nH]c(-c2ccccc2)c1` [Cpd 137, 5-phenyl-N-(2,4,5-trifluorophenyl)-1H-pyrrole-3-sulfonamide], the IC50 was in the range of 0.5 to 5 µM.

As for `O=S(=O)(Nc1ccc(C(F)(F)F)cn1)c1c[nH]c(-c2ccccc2)c1` [Cpd 138, 5-phenyl-N-[5-(trifluoromethyl)-2-pyridyl]-1H-pyrrole-3-sulfonamide], the IC50 lay within 5 to 50 µM. The value for `O=S(=O)(Nc1cc(C(F)(F)F)ccn1)c1c[nH]c(-c2ccccc2)c1` [Cpd 139, 5-phenyl-N-[4-(trifluoromethyl)-2-pyridyl]-1H-pyrrole-3-sulfonamide] was 0.5 to 5 µM. Consider `O=S(=O)(Nc1ncc(C(F)(F)F)cc1F)c1c[nH]c(-c2ccccc2)c1` [Cpd 140, N-[3-fluoro-5-(trifluoromethyl)-2-pyridyl]-5-phenyl-1H-pyrrole-3-sulfonamide], for which the IC50 was in the range of 0.5 to 5 µM. Regarding `O=S(=O)(Nc1cccc2c1OC(F)(F)O2)c1c[nH]c(-c2ccccc2)c1` [Cpd 141, N-(2,2-difluoro-1,3-benzodioxol-4-yl)-5-phenyl-1H-pyrrole-3-sulfonamide], the IC50 is 0.5 to 5 µM.

Regarding `O=S(=O)(Nc1cnc(Cl)cc1F)c1c[nH]c(-c2ccccc2F)c1` [Cpd 142, N-(6-chloro-4-fluoro-3-pyridyl)-5-(2-fluorophenyl)-1H-pyrrole-3-sulfonamide], the IC50 fell in the range of 0.5 to 5 µM.

Turning to `O=S(=O)(Nc1ccc(OC(F)(F)F)cc1F)c1c[nH]c(-c2ccccc2)c1` [Cpd 143, N-[2-fluoro-4-(trifluoromethoxy)phenyl]-5-phenyl-1H-pyrrole-3-sulfonamide], the IC50 was in the range of 0.5 to 5 µM. Turning to `COc1cc(C(F)(F)F)ccc1NS(=O)(=O)c1c[nH]c(-c2ccccc2)c1` [Cpd 144, N-[2-methoxy-4-(trifluoromethyl)phenyl]-5-phenyl-1H-pyrrole-3-sulfonamide], the IC50 fell in the range of 5 to 50 µM.
